{"source": "patent US20250041380A1", "about": "“R[…] FOR SARS-COV2 DISEASE” (priority 2021, published 2025)", "key": {"[1]": {"system": "Endothelial cells (EA.hy926)", "assay": "cells", "format": "cell-based", "details": "Spike S1 Protein (1 μg/ml); for inhibition at 0.1 µM / inhibition at 1 µM / inhibition at 10 µM / inhibition at 20 µM: Homo sapiens, EA.hy 926"}, "[2]": {"assay": "in vitro", "format": "cell-based, Human", "details": "human, 1 μM", "experimental": "(§1) A549 cells were plated in DMEM+10% FBS at a density of 10,000 cells/well in 96-well culture plates and incubated at 37° C. for 24 h. THP-1 cells were plated in RPMI+10% FBS at a density of 10,000 cells/well in 96-well culture plates and incubated at 37° C. for 24 h. Cells were sera-starved for 24 h. […] Untreated cells were used as control. Cells treated with dexamethasone and hydroxychloroquine were included as positive control. After treatment, cells were incubated in a 5% CO2 incubator for 48 h."}, "[3]": {"system": "Lung (A549) cells", "assay": "in vitro", "format": "cell-based, Human", "details": "48 h", "experimental": "as §1"}, "[4]": {"system": "Kidney cells (HEK-293)", "assay": "cells", "format": "cell-based", "details": "Spike S1 Protein (100 ng/ml); for inhibition at 0.1 µM / inhibition at 1 µM / inhibition at 10 µM / inhibition at 20 µM: Homo sapiens, HEK293"}, "[5]": {"system": "liver cells (HepG2)", "assay": "cells", "format": "cell-based", "details": "Spike S1 Protein (20 μg/ml)"}, "[6]": {"system": "Colon cells (HT-29)", "assay": "cells", "format": "cell-based", "details": "Spike S1 Protein (1 μg/ml); for inhibition at 0.1 µM / inhibition at 1 µM / inhibition at 10 µM / inhibition at 20 µM: Homo sapiens, HT-29"}, "[7]": {"system": "Immune (THP-1) cells", "assay": "in vitro", "format": "cell-based, Human", "details": "48 h", "experimental": "as §1"}, "[8]": {"assay": "in vitro", "format": "cell-based, Human", "details": "human, 1 μM", "experimental": "as §1", "remark": "listed apart in the source"}, "[9]": {"details": "read-out: % Inhibition (wrt, IL-6)"}, "[10]": {"details": "read-out: % Inhibition (wrt, IL-8)"}, "[11]": {"details": "0.1 μM, read-out: % Inhibition (wrt Control), IL-6"}, "[12]": {"details": "0.1 μM, read-out: % Inhibition (wrt Control), IL-8"}, "[13]": {"details": "1 μM, read-out: % Inhibition (wrt Control), IL-6"}, "[14]": {"details": "1 μM, read-out: % Inhibition (wrt Control), IL-8"}, "[15]": {"details": "10 μM, read-out: % Inhibition (wrt Control), IL-6"}, "[16]": {"details": "10 μM, read-out: % Inhibition (wrt Control), IL-8"}, "[17]": {"details": "20 μM, read-out: % Inhibition (wrt Control), IL-6"}, "[18]": {"details": "20 μM, read-out: % Inhibition (wrt Control), IL-8"}}, "note": "Read-outs that look alike come from different tables or passages of the source."}
{"molecule": "CCN(CCO)CCCC(C)Nc1ccnc2cc(Cl)ccc12", "note": "(centres unmarked) [Hydroxychloroquine sulphate]", "values": [{"measurement": "Con. of IL-8", "setting": "[1]; 20 μM", "value": 1573.3, "unit": "pg/mL"}, {"measurement": "Conc. of IL-6", "setting": "[1]; 20 μM", "value": 58.9, "unit": "pg/mL"}, {"measurement": "inhibition at 0.1 µM", "setting": "[1]; [9]", "value": 56.9, "unit": "%"}, {"measurement": "inhibition at 0.1 µM", "setting": "[1]; [10]", "value": 48.8, "unit": "%"}, {"measurement": "inhibition at 1 µM", "setting": "[1]; [9]", "value": 40.5, "unit": "%"}, {"measurement": "inhibition at 1 µM", "setting": "[1]; [10]", "value": 36.5, "unit": "%"}, {"measurement": "inhibition at 10 µM", "setting": "[1]; [9]", "value": 81, "unit": "%"}, {"measurement": "inhibition at 10 µM", "setting": "[1]; [10]", "value": 0, "unit": "%"}, {"measurement": "inhibition at 20 µM", "setting": "[1]; 20 μM, read-out: % Inhibition (wrt, IL-6)", "value": 82.5, "unit": "%"}, {"measurement": "inhibition at 20 µM", "setting": "[1]; 20 μM, read-out: % Inhibition (wrt, IL-8)", "value": 2.6, "unit": "%"}, {"measurement": "cytotoxicity at 48 h, 1 µM", "setting": "[2]", "value": -5.2, "unit": "%"}, {"measurement": "% Viability", "setting": "[3]; 0.1 μM", "value": 79.0, "unit": "%"}, {"measurement": "% Viability", "setting": "[3]; 1 μM", "value": 105.2, "unit": "%"}, {"measurement": "% Viability", "setting": "[3]; 5 μM", "value": 101.0, "unit": "%"}, {"measurement": "% Viability", "setting": "[3]; 10 μM", "value": 110.9, "unit": "%"}, {"measurement": "% Viability", "setting": "[3]; 20 μM", "value": 72.4, "unit": "%"}, {"measurement": "Con. of IL-8", "setting": "[4]; 0.1 μM", "value": 651.8, "unit": "pg/mL"}, {"measurement": "Conc. of IL-6", "setting": "[4]; 0.1 μM", "value": 94.2, "unit": "pg/mL"}, {"measurement": "Con. of IL-8", "setting": "[4]; 1 μM", "value": 678.2, "unit": "pg/mL"}, {"measurement": "Conc. of IL-6", "setting": "[4]; 1 μM", "value": 97.4, "unit": "pg/mL"}, {"measurement": "Con. of IL-8", "setting": "[4]; 10 μM", "value": 959.1, "unit": "pg/mL"}, {"measurement": "Conc. of IL-6", "setting": "[4]; 10 μM", "value": 137.7, "unit": "pg/mL"}, {"measurement": "Con. of IL-8", "setting": "[4]; 20 μM", "value": 1809.1, "unit": "pg/mL"}, {"measurement": "Conc. of IL-6", "setting": "[4]; 20 μM", "value": 260.0, "unit": "pg/mL"}, {"measurement": "inhibition at 0.1 µM", "setting": "[4]; [11]", "value": 63.8, "unit": "%"}, {"measurement": "inhibition at 0.1 µM", "setting": "[4]; [12]", "value": 66, "unit": "%"}, {"measurement": "inhibition at 1 µM", "setting": "[4]; [13]", "value": 62.6, "unit": "%"}, {"measurement": "inhibition at 1 µM", "setting": "[4]; [14]", "value": 64.6, "unit": "%"}, {"measurement": "inhibition at 10 µM", "setting": "[4]; [15]", "value": 47.1, "unit": "%"}, {"measurement": "inhibition at 10 µM", "setting": "[4]; [16]", "value": 49.9, "unit": "%"}, {"measurement": "inhibition at 20 µM", "setting": "[4]; [17]", "value": 0, "unit": "%"}, {"measurement": "inhibition at 20 µM", "setting": "[4]; [18]", "value": 5.5, "unit": "%"}, {"measurement": "Conc. of IL-8", "setting": "[5]; 0.1 μM", "value": 117.1, "unit": "pg/mL"}, {"measurement": "Conc. of IL-8", "setting": "[5]; 1 μM", "value": 193.2, "unit": "pg/mL"}, {"measurement": "Conc. of IL-8", "setting": "[5]; 10 μM", "value": 162.5, "unit": "pg/mL"}, {"measurement": "Conc. of IL-8", "setting": "[5]; 20 μM", "value": 103.6, "unit": "pg/mL"}, {"measurement": "inhibition at 0.1 µM", "setting": "[5]; Homo sapiens, HepG2, 0.1 μM, read-out: % Inhibition (wrt Control ), IL-8", "value": 76.5, "unit": "%"}, {"measurement": "inhibition at 1 µM", "setting": "[5]; Homo sapiens, HepG2, 1 μM, read-out: % Inhibition (wrt Control ), IL-8", "value": 61.3, "unit": "%"}, {"measurement": "inhibition at 10 µM", "setting": "[5]; Homo sapiens, HepG2, 10 μM, read-out: % Inhibition (wrt Control ), IL-8", "value": 67.4, "unit": "%"}, {"measurement": "inhibition at 20 µM", "setting": "[5]; Homo sapiens, HepG2, 20 μM, read-out: % Inhibition (wrt Control ), IL-8", "value": 79.2, "unit": "%"}, {"measurement": "Con. of IL-8", "setting": "[6]; 0.1 μM", "value": 49.1, "unit": "pg/mL"}, {"measurement": "Conc. of IL-6", "setting": "[6]; 0.1 μM", "value": 114.8, "unit": "pg/mL"}, {"measurement": "Con. of IL-8", "setting": "[6]; 1 μM", "value": 92.3, "unit": "pg/mL"}, {"measurement": "Conc. of IL-6", "setting": "[6]; 1 μM", "value": 91.1, "unit": "pg/mL"}, {"measurement": "Con. of IL-8", "setting": "[6]; 10 μM", "value": 99.5, "unit": "pg/mL"}, {"measurement": "Conc. of IL-6", "setting": "[6]; 10 μM", "value": 125.2, "unit": "pg/mL"}, {"measurement": "Con. of IL-8", "setting": "[6]; 20 μM", "value": 37.6, "unit": "pg/mL"}, {"measurement": "Conc. of IL-6", "setting": "[6]; 20 μM", "value": 104.2, "unit": "pg/mL"}, {"measurement": "inhibition at 0.1 µM", "setting": "[6]; [11]", "value": 51.3, "unit": "%"}, {"measurement": "inhibition at 0.1 µM", "setting": "[6]; [12]", "value": 92.7, "unit": "%"}, {"measurement": "inhibition at 1 µM", "setting": "[6]; [13]", "value": 61.4, "unit": "%"}, {"measurement": "inhibition at 1 µM", "setting": "[6]; [14]", "value": 86.2, "unit": "%"}, {"measurement": "inhibition at 10 µM", "setting": "[6]; [15]", "value": 46.9, "unit": "%"}, {"measurement": "inhibition at 10 µM", "setting": "[6]; [16]", "value": 85.2, "unit": "%"}, {"measurement": "inhibition at 20 µM", "setting": "[6]; [17]", "value": 55.8, "unit": "%"}, {"measurement": "inhibition at 20 µM", "setting": "[6]; [18]", "value": 94.4, "unit": "%"}, {"measurement": "% Viability", "setting": "[7]; 0.1 μM", "value": 113.4, "unit": "%"}, {"measurement": "% Viability", "setting": "[7]; 1 μM", "value": 105.2, "unit": "%"}, {"measurement": "% Viability", "setting": "[7]; 5 μM", "value": 95.8, "unit": "%"}, {"measurement": "% Viability", "setting": "[7]; 10 μM", "value": 104.8, "unit": "%"}, {"measurement": "% Viability", "setting": "[7]; 20 μM", "value": 89.3, "unit": "%"}, {"measurement": "cytotoxicity at 48 h, 1 µM", "setting": "[8]", "value": -5.2, "unit": "%"}]}
